Results from US20240391931A1 (Bristol-Myers Squibb Company, priority 2021, published 2024).
Where a name gives a salt, the structure may show the parent alone. Read-outs that look alike come from different tables or passages of the source.

Tests used:
EGFR = EGFR (Homo sapiens, UniProt P00533); test: EGFR signaling (pEGFR Tyr1068/total EGFR MSD) in A431 cells; assay type: cell-based; set-up: endogenous in cells; host or cells: A431, N87; settings: for Selectivity A431 EC50/BT474 EC50: ratio A431 pEGFR EC50 to BT474 pHER2 EC50; for Selectivity A431 EC50/HEKYVMA EC50: ratio A431 pEGFR EC50 to HEK YVMA pHER2 EC50
Sequence of EGFR (P00533 25-1210): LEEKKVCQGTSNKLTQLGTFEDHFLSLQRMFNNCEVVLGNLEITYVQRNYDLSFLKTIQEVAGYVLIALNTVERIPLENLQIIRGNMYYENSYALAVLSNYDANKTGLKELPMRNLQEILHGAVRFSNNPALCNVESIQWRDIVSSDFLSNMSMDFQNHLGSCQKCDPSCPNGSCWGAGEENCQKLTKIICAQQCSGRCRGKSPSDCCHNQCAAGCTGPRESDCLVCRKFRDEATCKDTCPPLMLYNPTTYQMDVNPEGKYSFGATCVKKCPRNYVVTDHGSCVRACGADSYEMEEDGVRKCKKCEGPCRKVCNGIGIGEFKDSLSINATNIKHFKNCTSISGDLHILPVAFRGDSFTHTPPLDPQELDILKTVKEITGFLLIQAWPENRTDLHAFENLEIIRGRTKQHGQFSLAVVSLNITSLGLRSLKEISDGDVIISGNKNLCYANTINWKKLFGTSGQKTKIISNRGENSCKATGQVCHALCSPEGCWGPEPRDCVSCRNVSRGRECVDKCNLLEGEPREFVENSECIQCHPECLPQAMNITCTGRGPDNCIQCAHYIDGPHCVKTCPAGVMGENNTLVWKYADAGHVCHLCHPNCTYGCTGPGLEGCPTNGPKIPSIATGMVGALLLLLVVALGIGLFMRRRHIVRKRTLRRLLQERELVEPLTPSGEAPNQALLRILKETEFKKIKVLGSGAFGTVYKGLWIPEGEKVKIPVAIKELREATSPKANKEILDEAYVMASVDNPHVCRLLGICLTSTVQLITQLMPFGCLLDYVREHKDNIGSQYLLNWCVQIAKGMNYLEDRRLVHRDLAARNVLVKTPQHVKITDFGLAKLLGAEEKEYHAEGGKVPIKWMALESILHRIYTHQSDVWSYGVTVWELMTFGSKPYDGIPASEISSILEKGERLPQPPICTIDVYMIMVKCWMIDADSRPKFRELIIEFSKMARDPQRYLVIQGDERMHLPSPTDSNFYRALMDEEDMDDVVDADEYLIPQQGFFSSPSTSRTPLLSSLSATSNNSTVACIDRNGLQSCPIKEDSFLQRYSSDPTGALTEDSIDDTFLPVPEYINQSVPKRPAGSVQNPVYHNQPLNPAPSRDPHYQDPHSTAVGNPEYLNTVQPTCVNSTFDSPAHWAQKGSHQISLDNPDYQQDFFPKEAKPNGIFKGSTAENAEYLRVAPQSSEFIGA
Protocol: (§1) In addition to the engineered cell lines, the following cell lines were used: BT474 (human breast carcinoma), N87 (human gastric carcinoma), NCI-H1781 (human lung adenocarcinoma), and A431 (human epidermoid carcinoma); all cell lines were obtained from the American Type Culture Collection (ATCC, Manassas, VA). NCI-H1781 were grown in complete RPMI 1640 (Life Technologies, Carlsbad, CA) supplemented with 15% fetal bovine serum (FBS, Life Technologies, Carlsbad, CA) and 1% Penicillin-Streptomycin (P/S, Life Technologies, Carlsbad, CA). N87 cells were grown in complete RPMI 1640 supplemented with 10% FBS and 1% P/S. BT474 and A431 cells were grown in DMEM (Life Technologies, Carlsbad, CA) supplemented with 10% FBS and 1% P/S. All cells were maintained and propagated in a humidified 5% CO2 incubator at 37° C.
A431 Cells were plated in 96-well tissue-culture treated plates in full media for 6 h, then starved with media containing 0.1% FBS for overnight. Media was replaced with low serum media (1% FBS) containing compound at 10, 3.3, 1.1, 0.37, 0.12, 0.041, 0.014, 0.005 μM or DMSO control (0.1%). Cells were incubated for 1.5 hr, then stimulated with 100 ng/mL human EGF (PeproTech, Rocky Hill, NJ) for 10 minutes. Cells were washed with cold PBS, and lysed for 30 min on ice in complete MSD lysis buffer (prepared as described in HER2 Signaling Method); lysates were stored at −70° C. until further analysis. EGFR signaling was evaluated using phospho (Tyr 1068)/total EGFR whole cell lysate kit (Meso-Scale Discovery, Gaithersburg, MD). The phospho EGFR signal was normalized to total EGFR for each sample; results are reported as % DMSO control. The normalized data was fitted using a sigmoidal curve analysis program (Graph Pad Prism version 6) with variable Hill slope to determine EC50 values. The results are provided in Table 4, under column titled “A431-pEGFR EC50”.

[1] = target: T1, HER2 wildtype (WT) protein (Homo sapiens, UniProt P04626); test: HER2 signaling (pHER2 Tyr1248/total HER2 MSD) in BT474 cells; assay type: cell-based; settings: 1.5 hr compound, 1% FBS
T1 construct: BT474 and N87 cell lines which endogenously overexpress the HER2 wildtype (WT) protein; endogenous in cells; host or cells: BT474, N87
T1 sequence (P04626 23-1255): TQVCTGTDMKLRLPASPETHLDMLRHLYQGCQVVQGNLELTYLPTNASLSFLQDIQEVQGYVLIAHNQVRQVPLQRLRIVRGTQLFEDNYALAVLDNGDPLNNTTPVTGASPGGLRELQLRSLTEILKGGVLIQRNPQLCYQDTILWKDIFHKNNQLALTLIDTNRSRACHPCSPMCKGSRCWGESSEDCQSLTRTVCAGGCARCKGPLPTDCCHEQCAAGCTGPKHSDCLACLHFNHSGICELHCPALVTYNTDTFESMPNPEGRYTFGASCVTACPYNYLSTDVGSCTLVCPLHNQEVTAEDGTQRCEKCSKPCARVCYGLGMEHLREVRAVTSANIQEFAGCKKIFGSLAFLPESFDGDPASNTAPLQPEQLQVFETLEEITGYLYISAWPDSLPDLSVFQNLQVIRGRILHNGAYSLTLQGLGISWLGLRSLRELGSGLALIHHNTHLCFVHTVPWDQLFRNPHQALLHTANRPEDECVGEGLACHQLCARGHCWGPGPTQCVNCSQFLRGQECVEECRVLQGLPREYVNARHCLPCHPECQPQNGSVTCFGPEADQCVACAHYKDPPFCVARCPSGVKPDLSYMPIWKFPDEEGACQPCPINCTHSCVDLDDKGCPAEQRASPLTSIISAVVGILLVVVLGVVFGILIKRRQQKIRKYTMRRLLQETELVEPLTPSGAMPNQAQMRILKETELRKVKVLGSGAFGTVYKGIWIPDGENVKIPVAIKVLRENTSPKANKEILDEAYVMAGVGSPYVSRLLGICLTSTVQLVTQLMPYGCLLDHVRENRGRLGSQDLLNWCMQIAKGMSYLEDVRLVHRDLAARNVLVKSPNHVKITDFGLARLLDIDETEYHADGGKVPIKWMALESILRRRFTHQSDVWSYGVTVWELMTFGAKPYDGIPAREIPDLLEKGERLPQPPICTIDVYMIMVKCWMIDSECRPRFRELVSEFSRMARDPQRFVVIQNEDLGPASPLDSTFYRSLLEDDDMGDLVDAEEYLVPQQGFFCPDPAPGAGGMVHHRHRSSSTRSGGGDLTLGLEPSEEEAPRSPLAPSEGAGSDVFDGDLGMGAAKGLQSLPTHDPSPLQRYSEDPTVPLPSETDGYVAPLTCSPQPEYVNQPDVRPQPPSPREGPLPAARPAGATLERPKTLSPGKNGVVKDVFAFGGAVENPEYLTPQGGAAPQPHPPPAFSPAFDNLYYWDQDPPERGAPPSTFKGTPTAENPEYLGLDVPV
Protocol: as §1
HER2 signaling was assessed in BT474 and N87 cell lines which endogenously overexpress the HER2 wildtype (WT) protein, in NCI-H1781 cells which endogenously expresses a HER2 mutant protein containing a VC insertion in the kinase domain (HER2VC or G776delinsVC), and in engineered cell lines transduced to express the Her2 mutant protein containing the YVMA insertion (Hek293-HER2YVMA and BEAS2B-HER2YVMA).
BT474, N87, and NCI-H1781 were plated in 96-well tissue-culture treated plates (Corning Costar, Sigma-Aldrich) in full media and incubated overnight. Hek293-HER2YVMA and BEAS2B-HER2YVMA cells were plated in 96-well poly-D-lysine treated plates (BD Bioscience, San Jose, CA). For treatment with test compounds, the media was replaced with corresponding low serum media (1% FBS) containing test compound at 1.1, 0.37, 0.12, 0.041, 0.014, 0.005, 0.0014, 0.0005 μM or DMSO control (0.1%). Cells were incubated with compound for 1.5 hr at 37° C. After compound treatment, the media was removed and cells were lysed for 30 min on ice in complete MSD lysis buffer (prepared using MSD base lysis buffer (Meso-Scale Discovery) supplemented with cOmplete, EDTA-free Protease inhibitor cocktail (Roche), Phosphatase Inhibitor Cocktails 2 and 3 (Sigma-Aldrich), and 1 mM PMSF (Sigma-Aldrich)). Lysates were stored at −70° C. until further analysis.
HER2 signaling was evaluated using phospho (Tyr1248)/total ErbB2 whole cell lysate MSD plates (Meso-Scale Discovery, Gaithersburg, MD). The phospho HER2 signal was normalized to total HER2 for each sample; results are reported as % DMSO control. The normalized data was fitted using a sigmoidal curve analysis program (Graph Pad Prism version 6) with variable Hill slope to determine EC50 values.
The HER2 signaling results are provided in Table 4, under columns titled “BT474-pHER2 EC50”, “N87-pHER2 EC50”, and “NCI-H1781-pHER2 EC50”. Hek293-HER2YVMA ins fall under the heading “HEKYVMA-pHER2 EC50”, Ba/F3 HER2YVMA fall under the heading “Ba/F3 YVMA-pHER2 EC50” and BEAS2B-HER2YVMA fall under the heading “BEAS2B YVMA-pHER2 EC50”.

[2] = A431 cells, read-out: A431 pEGFR EC50

Row | EC50 (EGFR; [2]) [nM] | Selectivity A431 EC50/BT474 EC50 (EGFR) | Selectivity A431 EC50/HEKYVMA EC50 (EGFR) | EC50 [1] [nM] | Structure (SMILES) | EC50 (EGFR; A431 pEGFR EC50, A431 cells) [nM]
1 | 1000 to 10000 | A (A: ≥100) | B (B: ≥ 20 and < 100) | < 100 | Cc1cc(Nc2ncnc3sc4c(c23)CCN(C(=O)/C=C/CN2CCOCC2)C4)ccc1Oc1ccc2ncnn2c1 [Compound 12] | –
2 | 100 to 1000 | C (C: ≥ 10 and < 20) | C (C: ≥ 10 and < 20) | < 100 | Cc1ccc(Oc2ccc(Nc3ncnc4sc5c(c34)CCN(C(=O)/C=C/CN3CC4CCC(C3)O4)C5)cc2C)cn1 [Compound 13] | –
3 | < 100 | D (D: ≥ 5 and < 10) | E (E: >1 and < 5) | < 100 | Cc1ccc(Oc2ccc(Nc3ncnc4sc5c(c34)CCN(C(=O)/C=C/CN3CC4CCC3C4)C5)cc2C)cn1 (stereo not shown) [Compound 14] | –
4 | 100 to 1000 | B (B: ≥ 20 and < 100) | B (B: ≥ 20 and < 100) | < 100 | O=C(/C=C/CN1CCOCC1)N1CCc2c(sc3ncnc(Nc4ccc(Oc5ccc6ncnn6c5)c(Cl)c4)c23)C1 [Compound 18] | –
5 | < 100 | C (C: ≥ 10 and < 20) | A (A: ≥100) | < 100 | Cc1cc(Nc2ncnc3sc4c(c23)CCN(C(=O)/C=C/CN(C)C)C4)ccc1Oc1ccc2scnc2c1 [Compound 107, (E)-1-(4-((4-(benzo[d]thiazol-5-yloxy)-3-methylphenyl)amino)-5,8-dihydropyrido[4′,3′:4,5]thieno[2,3-d]pyrimidin-7(6H)-yl)-4-(dimethylamino)but-2-en-1-one] | –
6 | < 100 | C (C: ≥ 10 and < 20) | C (C: ≥ 10 and < 20) | < 100 | Cc1ccc(Oc2ccc(Nc3ncnc4sc5c(c34)CN(C(=O)/C=C/CN(C)C)CC5)cc2C)cn1 [Compound 108, (E)-4-(Dimethylamino)-1-(4-((3-methyl-4-((6-methylpyridin-3-yl)oxy)phenyl)amino)-7,8-dihydropyrido[3′,4′:4,5]thieno[2,3-d]pyrimidin-6(5H)-yl)but-2-en-1-one] | –
7 | 1000 to 10000 | A (A: ≥100) | B (B: ≥ 20 and < 100) | < 100 | Cc1cc(Nc2ncnc3sc4c(c23)CN(C(=O)/C=C/CN(C)C)C4)ccc1Oc1ccc2ncnn2c1 [Compound 111, (E)-1-(4-((4-([1,2,4]Triazolo[1,5-a]pyridin-6-yloxy)-3-methylphenyl)amino)-5H-pyrrolo[3′,4′:4,5]thieno[2,3-d]pyrimidin-6(7H)-yl)-4-(dimethylamino)but-2-en-1-one] | –
8 | 100 to 1000 | B (B: ≥ 20 and < 100) | C (C: ≥ 10 and < 20) | < 100 | Cc1ccc(Oc2ccc(Nc3ncnc4sc5c(c34)CCN(C(=O)/C=C/CN3CCC[C@H](n4cccn4)C3)C5)cc2C)cn1 [Compound 112] | –

More lines, now with the values behind:

Row | Structure (SMILES) | EC50 (EGFR; [2]) [nM] | Selectivity A431 EC50/BT474 EC50 (EGFR) | Selectivity A431 EC50/HEKYVMA EC50 (EGFR) | EC50 [1] [nM] | EC50 (EGFR; A431 pEGFR EC50, A431 cells) [nM]
9 | COc1cc(Nc2ncnc3sc4c(c23)CCN(C(=O)/C=C/CN(C)C)C4)ccc1Oc1ccccc1 [Compound 7, (E)-4-(dimethylamino)-1-(4-((3-methoxy-4-phenoxyphenyl)amino)-5,8-dihydropyrido[4′,3′:4,5]thieno[2,3-d]pyrimidin-7(6H)-yl)but-2-en-1-one] | < 100 | D (D: ≥ 5 and < 10) | F (F: < 1) | < 100 | –
10 | Cc1ccc(Oc2ccc(Nc3ncnc4sc5c(c34)CCN(C(=O)/C=C/CN(C)C)C5)cc2C)cn1 [Compound 8, (E)-4-(Dimethylamino)-1-(4-((3-methyl-4-((6-methylpyridin-3-yl)oxy)phenyl)amino)-5,6-dihydropyrido[4′,3′:4,5]thieno[2,3-d]pyrimidin-7(8H)-yl)but-2-en-1-one] | < 100 | C (C: ≥ 10 and < 20) | C (C: ≥ 10 and < 20) | < 100 | –
11 | C=CC(=O)N1CCc2c(sc3ncnc(Nc4ccc(Oc5cccnc5)c(C)c4)c23)C1 [Compound 11, 1-(4-((3-methyl-4-(pyridin-3-yloxy)phenyl)amino)-5,8-dihydropyrido[4′,3′:4,5]thieno[2,3-d]pyrimidin-7(6H)-yl)prop-2-en-1-one] | < 100 | E (E: >1 and < 5) | E (E: >1 and < 5) | < 100 | –
12 | Cc1ccc(Oc2ccc(Nc3ncnc4sc5c(c34)CCN(C(=O)/C=C/CN3CC4CC(C3)O4)C5)cc2C)cn1 [Compound 15] | 100 to 1000 | B (B: ≥ 20 and < 100) | B (B: ≥ 20 and < 100) | < 100 | –
13 | Cc1ccc(Oc2ccc(Nc3ncnc4sc5c(c34)CCN(C(=O)/C=C/CN3CC4CCC(C4)C3)C5)cc2C)cn1 [Compound 16, (E)-4-(3-azabicyclo[3.2.1]octan-3-yl)-1-(4-((3-methyl-4-((6-methylpyridin-3-yl)oxy)phenyl)amino)-5,8-dihydropyrido[4′,3′:4,5]thieno[2,3-d]pyrimidin-7(6H)-yl)but-2-en-1-one benzenesulfonate salt] | – | D (D: ≥ 5 and < 10) | D (D: ≥ 5 and < 10) | < 100 | 100 to 1000
14 | Cc1ccc(Oc2ccc(Nc3ncnc4sc5c(c34)CCN(C(=O)/C=C/CN3CCOCC3)C5)cc2C)cn1 [Compound 17, (E)-1-(4-((3-Methyl-4-((6-methylpyridin-3-yl)oxy)phenyl)amino)-5,6-dihydropyrido[4′,3′:4,5]thieno[2,3-d]pyrimidin-7(8H)-yl)-4-morpholinobut-2-en-1-one] | 100 to 1000 | C (C: ≥ 10 and < 20) | A (A: ≥100) | < 100 | –
15 | Cc1cc(Nc2ncnc3sc4c(c23)CCN(C(=O)/C=C/CN(C)C)C4)ccc1Oc1ccc2nccn2c1 [Compound 109, (E)-4-(dimethylamino)-1-(4-((4-(imidazo[1,2-a]pyridin-6-yloxy)-3-methylphenyl)amino)-5,6-dihydropyrido[4′,3′:4,5]thieno[2,3-d]pyrimidin-7(8H)-yl)but-2-en-1-one] | 100 to 1000 | D (D: ≥ 5 and < 10) | E (E: >1 and < 5) | < 100 | –
16 | Cc1cn2ccc(Oc3ccc(Nc4ncnc5sc6c(c45)CCN(C(=O)/C=C/CN(C)C)C6)cc3C)cc2n1 [Compound 110, (E)-4-(dimethylamino)-1-(4-((3-methyl-4-((2-methylimidazo[1,2-a]pyridin-7-yl)oxy)phenyl)amino)-5,8-dihydropyrido[4′,3′:4,5]thieno[2,3-d]pyrimidin-7(6H)-yl)but-2-en-1-one] | 1000 to 10000 | B (B: ≥ 20 and < 100) | C (C: ≥ 10 and < 20) | < 100 | –
